# Results from patent US20240108740A1, “THERAPEUTIC COMPOSITIONS INCLUDING SPN10 AND USES THEREOF” (Stealth BioTherapeutics Inc., priority 2022, published 2024).
# Residues, ends and D or L forms follow the SMILES beside them.
# Assays:
# [1] = system: Caco-2 cells (human intestinal epithelial cells); assay type: in vitro ADME
# Procedure: The cellular uptake of [^3H] SPN10(s) (with or without aromatic-cationic peptides) or [^3H] peptide conjugates will be studied using Caco-2 cells (human intestinal epithelial cells), and confirmed using SH-SY5Y (human neuroblastoma), HEK293 (human embryonic kidney) and CRFK (kidney epithelial) cells. Monolayers of cells will be cultured in 12-well plates (5×10^5 cells/well) coated with collagen for 3 days. On day 4, the cells will be washed twice with pre-warmed HBSS, and incubated with 0.2 mL of HBSS containing 250 nM [^3H] peptide conjugates; [^3H] aromatic-cationic peptides (an equivalent molar dose of aromatic-cationic peptide based on the concentration of the aromatic-cationic peptide administered in the peptide conjugate treatment group); [^3H] SPN10(s) (an equivalent molar dose of SPN10 based on the concentration of SPN10 administered in the peptide conjugate treatment group); or SPN10(s) in combination with aromatic-cationic peptides (e.g., an equivalent molar dose of SPN10 based on the concentration of SPN10 administered in the peptide conjugate treatment group and an equivalent molar dose of aromatic-cationic peptide based on the concentration of aromatic-cationic peptide administered in the peptide conjugate treatment group) at 37° C. or 4° C. for various times up to 1 hour. […] The cell lysates will then be transferred to scintillation vials and radioactivity will be counted. To distinguish between internalized radioactivity and surface-associated radioactivity, an acid-wash step will be included. […] Excitation will be performed at 340 nm by means of a UV laser, and emission will be measured at 520 nm. […]
# Sprague-Dawley rats = test: Example 43: cisplatin-induced acute renal injury; assay type: in vivo, rat; settings: cisplatin 7 mg/kg i.p.
# Procedure: Experimental Protocol: Sprague-Dawley rats (350-400 g) will be given a single dose of cisplatin (7 mg/kg) intraperitoneally (i.p.) on Day 1. Subjects will receive peptide conjugates (3 mg/kg) (n=8), aromatic-cationic peptides (an equivalent molar dose of aromatic-cationic peptide based on the concentration of the aromatic-cationic peptide administered in the peptide conjugate treatment group) (n=8), SPN10(s) (an equivalent molar dose of SPN10 based on the concentration of SPN10 administered in the peptide conjugate treatment group) (n=8), SPN10(s) in combination with aromatic-cationic peptides (e.g., an equivalent molar dose of SPN10 based on the concentration of SPN10 administered in the peptide conjugate treatment group and an equivalent molar dose of aromatic-cationic peptide based on the concentration of aromatic-cationic peptide administered in the peptide conjugate treatment group) (n=8) or saline vehicle (n=8) subcutaneously just prior to cisplatin administration, and once daily for 3 additional days. Subjects will be placed in metabolic cages for the final 24 hours of the trial for urine collection. At the end of the trial, blood samples will be withdrawn from tail veins and the kidneys harvested.
# Renal function: Renal function will be assessed by measuring blood urea nitrogen (BUN), serum creatinine, urine creatinine, and urine protein. GFR will be estimated from creatinine clearance, which will be determined from serum and urinary creatinine, and urinary volume.
# Renal Histology: Kidneys will be fixed in 10% neutral-buffered formalin and embedded in paraffin wax for sectioning. Three-micron sections will be stained with periodic acid-Schiff (PAS) and analyzed by light microscopy.
smiles,measurement,setting,value
"N=C(N)NCCC[C@H](NC(=O)[C@@H](N)Cc1c[nH]c2ccccc12)C(=O)N[C@@H](Cc1c[nH]c2ccccc12)C(=O)N[C@@H](CCCCN)C(N)=O [SPN10, H-L-Trp-L-Arg-L-Trp-L-Lys-NH2] (H-WRWK-NH2)",rate of uptake at 4° C. compared to 37° C.,[1],slower
same,saturation of uptake by 45 minutes,[1],76.5%
same,saturation of uptake by 1 hour,[1],86.3%
same,increase in BUN after cisplatin,Sprague-Dawley rats,attenuate or prevent this effect
same,increase in serum creatinine after cisplatin,Sprague-Dawley rats,attenuate or prevent this effect
same,reduction in body weight after cisplatin,Sprague-Dawley rats,attenuate or prevent this effect
